In patent US4977152A, “Novel tricyclic derivatives which are agonists of cholinergic receptors, and drugs in which they are present” (Societe Anonyme: Sanofi, priority 1986, dated 1990):
Numbering of substitutions follows the chain as printed. “And” between values parts separate entries of the source, which are not always exact repeats. Equal values may be shown once. Where a name gives a salt, the structure may show the parent alone. Read-outs that look alike come from different tables or passages of the source.

What was measured:
[1] = target: T1, M1-type muscarinic cholinergic receptor (Rattus norvegicus, UniProt P08482); assay: Test for affinity for the M1-type muscarinic cholinergic receptor: displacement of [3H]pirenzepine on rat hippocampus homogenate; format: binding; settings: for IC50: rat hippocampus homogenate, 1 nM [3H]PZ, 2 h at 4° C., pH 7.40; for r = (M2 /M1): ratio of IC50 M2 (3H-NMS, guinea-pig ileum) to IC50 M1 (3H-pirenzepine, rat hippocampus)
T1 sequence (P08482 1-460): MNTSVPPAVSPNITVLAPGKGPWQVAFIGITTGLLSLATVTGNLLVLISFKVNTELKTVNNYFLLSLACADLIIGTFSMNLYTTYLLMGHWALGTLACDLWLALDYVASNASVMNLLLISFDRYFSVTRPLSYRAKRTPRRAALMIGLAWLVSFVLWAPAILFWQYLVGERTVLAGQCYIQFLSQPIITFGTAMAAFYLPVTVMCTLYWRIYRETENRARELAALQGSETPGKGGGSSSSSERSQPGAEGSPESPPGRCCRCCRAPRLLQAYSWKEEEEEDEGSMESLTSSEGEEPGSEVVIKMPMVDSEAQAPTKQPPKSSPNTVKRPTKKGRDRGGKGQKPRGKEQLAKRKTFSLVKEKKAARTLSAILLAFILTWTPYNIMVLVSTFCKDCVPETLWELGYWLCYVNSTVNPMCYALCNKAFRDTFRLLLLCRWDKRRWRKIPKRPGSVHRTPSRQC
Source text: (§1) The M1 -type receptors are concentrated in certain areas of the brain, such as the hippocampus, the cerebral cortex and the striatum, and also in the sympathetic ganglia. These binding sites can be selectively labeled with [^3 H]pirenzepine ([^3 H]PZ). The M2 -type receptors predominate in the heart and ileum and can be labeled with [^3 H]N-methylscopolamine ([^3 H]NMS). To determine the selectivity of our molecules towards the M1 and M2 sites, we studied their interaction in vitro with [^3 H]PZ and [^3 H]NMS bound with a high affinity to membranes of rat hippocampus and membranes of smooth muscle of guinea-pig ileum, respectively.
The interaction of the molecules with M1 -type muscarinic receptors was studied by in vitro measurement, on a homogenate of rat hippocampus, of the displacement of tritiated pirenzepine ([^3 H]PZ) from its specific binding sites. Aliquots (10 μl) of a 5% (w/v) homogenate of rat hippocampus in an Na2 HPO4 buffer (50 mM, pH 7.40) are incubated for 2 h at 4° C. in the presence of [^3 H]pZ ([…]; final concentration: 1 nM) and increasing concentrations of products to be studied. The final volume is 2 ml. The reaction is stopped by centrifugation for 10 min at 50,000 × g. After decantation and washing of the residues, the bound radioactivity is counted by liquid scintillation. The non-specific binding is determined in the presence of 10 μmol/l of atropine sulfate. The 50% inhibitory concentration (IC50) is determined graphically (Ref.: Watson J. D., Roeskoe W. R. and Yamamura H.1., Life Sci., 31, 2019-2029, 1982).
(§2) Table 4 indicates the affinities of the products of the invention for M1 and M2 receptors. The results are expressed as 50% inhibitory concentrations (IC50), i.e. the concentration (in μM) which causes a 50% displacement placement of the tritiated ligand bound to the membrane receptors. The IC50 for displacement of ^3 H-pirenzepine represents the affinity for the M1 receptor; the IC50 for displacement of 3H-NMS represents the affinity for the M2 receptor.

[2] = target: T2, M2-type muscarinic cholinergic receptor (Cavia porcellus, UniProt H0VRN8); assay: Test for affinity for the M2-type muscarinic cholinergic receptor: displacement of [3H]N-methylscopolamine on smooth muscle of guinea-pig ileum; format: binding; settings: guinea-pig ileum smooth muscle homogenate, 0.3 nM [3H]NMS, 20 min at 30° C., pH 7.5
T2 construct: on a homogenate of smooth muscle of guinea-pig ileum; from tissue; host or cells: guinea-pig ileum smooth muscle homogenate
T2 sequence (H0VRN8 1-466): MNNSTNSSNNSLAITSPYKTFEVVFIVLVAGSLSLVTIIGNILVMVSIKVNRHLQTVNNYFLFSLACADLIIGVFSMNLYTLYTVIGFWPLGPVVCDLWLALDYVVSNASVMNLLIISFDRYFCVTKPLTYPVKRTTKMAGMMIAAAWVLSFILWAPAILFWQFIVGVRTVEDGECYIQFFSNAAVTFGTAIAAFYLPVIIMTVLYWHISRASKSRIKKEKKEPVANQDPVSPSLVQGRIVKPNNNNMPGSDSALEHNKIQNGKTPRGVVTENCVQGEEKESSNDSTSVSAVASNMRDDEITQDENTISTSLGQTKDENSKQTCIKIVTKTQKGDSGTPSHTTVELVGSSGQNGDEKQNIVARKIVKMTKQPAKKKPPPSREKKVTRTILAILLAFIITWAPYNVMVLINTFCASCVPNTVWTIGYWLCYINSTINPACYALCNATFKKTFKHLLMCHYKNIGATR
Source text: as §1
The interaction with M2 -type muscarinic receptors was studied by in vitro measurement, on a homogenate of smooth muscle of guinea-pig ileum, of the displacement of tritiated N-methylscopolamine ([^3 H]NMS) from its specific binding sites. Aliquots (50 μl) of a 0.625% (w/v) homogenate of smooth muscle of guinea-pig ileum in MEPES buffer (20 mM) containing NaCl (100 mM) and MgCl2 (10 mM) (final pH: 7.5) are incubated for 20 min at 30° C. in the presence of [^3 H]NMS ([…]; final concentration: 0.3 nM) and increasing concentrations of products to be tested. The final volume is 1 ml. The reaction is stopped by centrifugation for 5 min at 15,000 × g. The non-specific binding is determined in the presence of 10 μmol/l of atropine sulfate (Ref.: Hammer R., Berrie C. P., Birdsall N. I. M., Burgen A. S. V. and Hulme E. C., Nature, 283, 90-92, 1980; Hulme E. C., Birdsall N.1.M., Burgen A. S. V. and Mettha P., Mol. pharmacol., 14, 737-750, 1978).
as §2

[3] = target: T3, M1 central muscarinic cholinergic receptors (Mus musculus, UniProt P12657); assay: Antagonism of rotational behavior induced by intrastriatal injection of pirenzepine in mice; format: in vivo, mice (female, Swiss, CD 1); settings: ip, read-out: Pirenzepine antagonism ED50
T3 construct: The intrastriatal injection of PZ into mice induces rotational behavior; from tissue; host or cells: right striatum of living female mice (Swiss, CD 1)
T3 sequence (P12657 1-460): T1 sequence (P08482 1-460) with S309P
Method: Pirenzepine (PZ) is a specific antagonist of M1 central muscarinic cholinergic receptors. The intrastriatal injection of PZ into mice induces rotational behavior. The antagonism of this behavior by the products according to the invention was studied.
The products according to the invention are injected intraperitoneally (i.p.) after solubilization in distilled water or suspension in a 5% solution of gum arabic. The control animals receive an injection of the pure solvent under the same conditions.
The animals used are female mice (Swiss, CD 1, Charles River, France) with a body weight of between 25 and 30 grams.
Pirenzepine is dissolved in a phosphate buffer; the pH of the solution is 6.
The products to be studied or their solvents are injected intraperitoneally, in a volume of 0.4 ml per 20 g of body weight, 15 minutes before a direct injection of pirenzepine at a dose of […] into the right striatum of the mouse, according to the method described by p.
The number of contralateral rotations (rotations in the opposite direction to the side injected) was counted for three 2-minute periods after the injection of pirenzepine: minutes 2 to 4, 8 to 10 and 13 to 15. Each treatment includes 3 to 4 doses and 10 animals per dose. For each treatment, the total number of rotations and the percentage antagonism compared with the control group are calculated.

[4] = mice, i.p. 15 minutes before intrastriatal pirenzepine, 50% reduction in number of rotations

Row | ED50 [3, 4] | SMILES | IC50 [1] | r = (M2 /M1) [1] | IC50 [2] | r = (M2 /M1) ([1]; dihydrochloride) | ED50 [3]
1 | 0.3 mg/kg | CCN1CCCC1CNc1cc2c(nn1)-c1ccccc1CCC2 (stereo not shown) [SR 95879 A, 3-[(1-Ethylpyrrolidin-2-yl)methylamino]-6,7-dihydro-5H-benzocyclohepta-5,6-c]pyridazine dihydrochloride] | 0.14 µM | 7 | 1 µM | – | –
2 | 3 mg/kg | c1ccc2c(c1)CCCc1cc(NCCN3CCCC3)nnc1-2 [SR 95883 A] | 0.13 µM | 35 | 4.5 µM | – | –
3 | 3 mg/kg | CCN(CC)CCNc1cc2c(nn1)-c1ccccc1CCC2 [SR 95640 A] | 0.05 µM | 40 | 2 µM | – | –
4 | – | Cl.Cl.c1ccc2c(c1)ccc1cc(NCCN3CCOCC3)nnc12 [SR 95679 A, 3-(2-Morpholinoethylamino)benzo[h]cinnoline dihydrochloride] | 3.1 µM | – | 100 µM and > 100 µM | 32 and > 32 | 10 mg/kg
5 | – | CN(C)CCOc1cc2c(nn1)-c1ccccc1CC2.Cl [SR 95745 A, 3-(2-Dimethylaminoethoxy)-5,6-dihydrobenzo[h]cinnoline hydrochloride] | 3.9 µM | 21 | 80 µM | – | 8 mg/kg
6 | – | Cl.Cl.c1ccc2c(c1)CCc1cc(NCCN3CCOCC3)nnc1-2 [SR 95695 A, 3-(2-Morpholinoethylamino)-5,6-dihydrobenzo[h]cinnoline dihydrochloride] | 2.6 µM | – | 100 µM and > 100 µM | 38 and > 38 | 5 mg/kg
7 | – | CCN(CC)CCNc1cc2c(nn1)-c1cc(C)c(C)cc1CCC2.Cl.Cl [SR 44663 A, 3-(2-Diethylaminoethylamino)-9,10-dimethyl-6,7-dihydro-5H-benzocyclohepta[5,6-c]pyridazine dihydrochloride] | 0.16 µM | 37 | 5 µM | – | 1 mg/kg
8 | – | CCN(CC)CCNc1cc2c(nn1)-c1cc([N+](=O)[O-])ccc1CCC2.Cl.Cl [SR 95777 A, 3-(2-Diethylaminoethylamino)-10-nitro-6,7-dihydro-5H-benzocyclohepta[5,6-c]pyridazine dihydrochloride] | 0.1 µM | 56 | 5.6 µM | – | 0.5 mg/kg
9 | – | CCN(CC)CCNc1cc2c(nn1)-c1cc(Cl)ccc1CCC2.Cl.Cl [SR 95878 A, 10-Chloro-3-(2-diethylaminoethylamino)-6,7-dihydro-5H-benzocyclohepta[5,6-c]pyridazine dihydrochloride] | 0.04 µM | 26 | 1.1 µM | – | 2 mg/kg
10 | – | CCN(CC)CCCNc1cc2c(nn1)-c1ccccc1CC2.Cl.Cl [SR 95746 A, 3-(3-Diethylaminopropylamino)-5,6-dihydrobenzo[h]-cinnoline dihydrochloride] | 1.5 µM | 17 | 25 µM | – | 10 to 30 mg/kg
11 | 3 mg/kg | CN(C)CCNc1cc2c(nn1)-c1ccccc1CCC2 [SR 95824 A] | 0.2 µM | 125 | 25 µM | – | –
12 | 7 mg/kg | CCN(CC)CCCNc1cc2c(nn1)-c1ccccc1CCC2 [SR 95818 A] | 0.24 µM | 50 | 12 µM | – | –
13 | 8 mg/kg | CCN(CC)CCSc1cc2c(nn1)-c1ccccc1CCC2 [SR 95820 A, 3-(2-Diethylaminoethylthio)-6,7-dihydro-5H-benzocyclohepta[ [drawing 52] 5,6-c]pyridazine hydrochloride] | 0.07 µM | 29 | 2 µM | – | –
14 | 1 mg/kg | CN(C)CCNc1cc2c(nn1)-c1cc([N+](=O)[O-])ccc1CCC2 [SR 44681 A] | 0.26 µM | 35 | 9 µM | – | –
15 | – | CN(C)CCOc1cc2c(nn1)-c1ccccc1CCC2.Cl [SR 95822 A, 3-(2-Dimethylaminoethoxy)-6,7-dihydro-5H-benzocyclohepta[5,6-c]pyridazine hydrochloride] | 1 µM | 9.5 | 9.5 µM | – | 3 mg/kg
16 | – | CCN(CC)CCNc1cc2c(nn1)-c1ccccc1CC2.Cl.Cl [SR 96054 A, 3-(2-Diethylaminoethylamino)-5,6-dihydrobenzo[h]cinnoline dihydrochloride] | 0.21 µM | 36 | 7.5 µM | – | 3 mg/kg
